Values of other authors in patent publication US7320970B2, “Low dose estrogen interrupted hormone replacement therapy” (Duramed Pharmaceutials, Inc., priority 1999, dated 2008).

What was measured:
[1] = biological target: T1, human sex-hormone-binding globulin (SHBG) (Homo sapiens, UniProt P04278)
T1 sequence (P04278 30-402): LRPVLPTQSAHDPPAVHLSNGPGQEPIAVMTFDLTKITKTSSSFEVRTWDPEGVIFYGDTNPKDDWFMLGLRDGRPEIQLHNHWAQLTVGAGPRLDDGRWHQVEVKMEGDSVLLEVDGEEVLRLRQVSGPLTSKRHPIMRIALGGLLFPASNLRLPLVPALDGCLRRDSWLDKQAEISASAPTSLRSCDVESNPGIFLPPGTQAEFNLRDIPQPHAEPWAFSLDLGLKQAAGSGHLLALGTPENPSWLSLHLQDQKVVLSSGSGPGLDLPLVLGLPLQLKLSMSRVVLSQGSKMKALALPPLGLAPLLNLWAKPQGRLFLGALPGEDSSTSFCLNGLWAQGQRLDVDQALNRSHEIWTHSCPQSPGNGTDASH

CC(=O)O[C@]1(C(C)=O)CC[C@H]2[C@@H]3C=C(C)C4=CC(=O)CC[C@]4(C)[C@H]3CC[C@@]21C [megestrol acetate]
decrease in the frequency of hot flushes (hot flushes; dose of 20 to 80 mg/day, versus 21 percent with placebo): 85%

C#C[C@]1(OC(C)=O)CC[C@H]2[C@@H]3CCC4=CC(=O)CC[C@@H]4[C@H]3CC[C@@]21C [norethindrone acetate]
effectiveness against hot flushes (hot flushes; 10 mg daily): effective

C#C[C@]1(OC(C)=O)CC[C@H]2[C@@H]3CCC4=C/C(=N/O)CC[C@@H]4[C@H]3CC[C@@]21CC [norgestimate, D-17β-acetoxy-B-ethyl-17α ethinyl-gon-4-en-3-one oxime]
binding to progestin receptors (progestin receptors): binds to progestin receptors
affinity for SHBG [1]: lack of affinity for SHBG
